The source of these data is paper PMC8803428, “Pharmacokinetics of Ginsenoside Rb1, Rg3, Rk1, Rg5, F2, and Compound K from Red Ginseng Extract in Healthy Korean Volunteers” (Evidence-based Complementary and Alternative Medicine : eCAM, 2022).

A short description of data set [1]: Stability of the ginsenosides in human plasma (QC samples, LC-MS/MS method validation). The format is in vitro ADME. As to conditions: human; for Short-term stability, concentration found: 19 h; for Autosampler stability, concentration found: 34 h; for Long-term stability, concentration found: 50 days. As to the method: The LC-MS/MS method was validated to determine selectivity, lower limits of quantification (LLOQ), accuracy, precision, recovery, matrix effect, and stability, according to the guideline for validating the bioanalytical method. The selectivity of the method was evaluated by comparison of blank plasma from six different men to the corresponding spiked plasma sample at the level of LLOQ to investigate the potential interferences at the LC chromatographic conditions for ginsenoside analytes and IS. The signal-to-noise ratio (S/N) of the LLOQ sample was at least five times the response compared to the blank samples. Each calibration curve was constructed by plotting the peak area ratio (y) of the analyte to IS against the spiked concentrations (x) of each analyte. Linearity was assessed by weighted (1/x^2) least squares regression analysis. The LLOQ was defined as the lowest concentration on the calibration curve with an S/N ratio of 10, where the precision and accuracy bias were within ±20% by five replicate analyses. The intra- and interday precision and accuracy assessments were performed at four concentrations with five replicates on the same day and three consecutive days, respectively. The acceptance criterion recommended by the guideline of precision and the accuracy was ±15% of the nominal concentration. The recovery of the seven ginsenosides was determined at three QC levels with three replicates by comparing the peak areas of plasma extracts spiked with analytes before extraction with those of the postextraction spiked samples at the same concentration. The matrix effects were investigated by comparing the peak areas of the analytes dissolved in the pretreated blank plasma with the corresponding concentrations prepared in the reconstitution solution with three replicates. The stability of the analytes in human plasma was assessed by analyzing five replicates of plasma samples at low, medium, and high QC levels under four different conditions. Short-term stability was evaluated after the exposure of QC samples to room temperature for 19 h before processing and analysis. The freeze and thaw stability was tested after three repeated cycles of thawing at room temperature and freezing at approximately −70°C. The long-term stability was assessed after storage at approximately −70°C for 50 days. The post-preparative stability was examined after the exposure of processed samples at ambient temperature (stored in an HPLC autosampler) for 34 h.

Data set [2] can be described thus: Pharmacokinetics of ginsenosides in plasma after a single oral dose of RG or BRG capsules in healthy Korean men (LC-MS/MS). The format is in vivo, human. As to conditions: for half-life: T 1/2; for Tmax: T max. From the text: This study was designed as a randomized, open-label, single-dose, crossover study with washout every 1 week to evaluate the pharmacokinetics and safety of ginsenosides. Subjects were randomly assigned to either the RG or BRG group during the first period of the study (Figure 2). After 1 week of the washout period, other products that were not received in the first period were provided. All enrolled subjects were hospitalized at Bestian Clinical Trial Center on the day before taking RG or BRG. Subjects were provided regular meals, and additional food intake was restricted after the meal. The next day, the subjects who had maintained the fasting state for 10 h took the capsules corresponding to 5 g of RG and BRG orally. Water was restricted for 1 h before and after intake, and food intake was restricted for 4 h after administration. After 4 h, all subjects received a standardized meal. In addition, lying down or sleeping was prohibited for 8 h after oral administration. Blood samples (5 mL) were collected before dosing and at each time point (0, 0.5, 1, 2, 4, 6, 8, 10, 12, and 24 h) after dosing. All blood samples were collected in heparin-treated tubes. The blood samples were promptly centrifuged at 3,000 rpm for 10 min at 4°C, and the plasma samples obtained were stored in a deep freezer at −70 ± 10°C until assay.
All analyses were performed using an Agilent 1200 series HPLC system (Agilent) with a Luna Phenyl-Hexyl column (2.0 × 150 mm, 5 μm; Phenomenex, CA, USA). The mobile phase comprised water (solvent A) and acetonitrile (solvent B) containing 0.1% formic acid. The flow rate of the mobile phase was 0.25–0.35 mL/min. The initial condition of 70% solvent A was set to 5% solvent A over 15 min. The content of ginsenosides in human plasma was measured using an API 5500 mass spectrometer (AB Sciex, Foster City, CA, USA) capable of multiple reaction monitoring (MRM). The parent-daughter ion pairs monitored were 845.5 ⟶ 799.6 for Rg1, 1153.6 ⟶ 1107.5 for Rb1, 829.4 ⟶ 783.5 for Rg3, and F2, 811.4 ⟶ 161.0 for Rg5 and Rk1, 667.4 ⟶ 161.0 for CK, and 825.4 ⟶ 779.3 for digoxin as an IS in the negative ion mode. Nitrogen gas was used in the nebulizer and the collision cell. The ion spray voltage was set to 5500 V.
Standard plasma samples were prepared such that each ginsenoside was in the concentration range of 0.5–100 ng/mL; 10 μL of a standard mixture of six kinds of ginsenosides (Rg1, Rb1, Rg5 + Rk1, F2, and CK) was added to 90 μL of blank human plasma. Rg3 was prepared in the concentration range of 0.2–40 ng/mL. Standard plasma samples (100 μL) were added to 200 μL of methanol containing 50 ng/mL digoxin, an IS. These were mixed for 1 min and then centrifuged at 12,000 rpm for 5 min at 4°C. Then, 100 μL of the supernatant was transferred to an LC vial, and 10 μL was injected into the LC-MS/MS system. Plasma samples stored at −70°C were thawed at room temperature. Samples for LC-MS/MS analysis were pretreated in the same manner as standard plasma samples.
Plasma concentrations of seven ginsenosides were calculated from calibration curves by calculating the ratio of the peak area of the test substance to the peak area of the IS. The following pharmacokinetic parameters were measured using Phoenix WinNonlin 6.3 (Pharsight Co, CA, USA): time to reach maximum observed plasma drug concentration (Tmax), maximum observed plasma drug concentration (Cmax), area under the plasma drug concentration-time curve from 0 h to the final measured time (AUC(0–t)), area under the plasma drug concentration–time curve from 0 h to infinity (AUC(0–∞)), and terminal elimination half-life (t1/2).

In the case of `CC(C)=CCC[C@](C)(O)[C@H]1CC[C@]2(C)[C@@H]1[C@H](O)C[C@@H]1[C@@]3(C)CC[C@H](O[C@@H]4O[C@H](CO)[C@@H](O)[C@H](O)[C@H]4O[C@@H]4O[C@H](CO)[C@@H](O)[C@H](O)[C@H]4O)C(C)(C)[C@@H]3CC[C@]12C` [Rg3, ginsenoside Rg3], in data set [1] (0.6 ng/mL), the “Freeze-thaw stability, concentration found” value (shortened to “Freeze-thaw stability”) amounted to 97.73 ± 3.53%; the “Short-term stability, concentration found” value (shortened to “Short-term stability”) is reported as 102.32 ± 2.68%; the “Autosampler stability, concentration found” value (from here on “Autosampler stability”) turned out to be 102.95 ± 5.52%; the “Long-term stability, concentration found” value is reported as 104.15 ± 8.68%. In data set [1] (32 ng/mL), the “Freeze-thaw stability” value stood at 95.33 ± 2.75%; the “Short-term stability” value is on record as 96.32 ± 1.48%; the “Autosampler stability” value is listed as 97.25 ± 1.45%; the “Long-term stability, concentration found” value came to 99.84 ± 3.12%. Moreover, the “detection in plasma at the initial time point (0 h) of the second treatment period” value in data set [2] (in vivo) was “did not detect”. Also, in data set [2] (male, human, in vivo, po), the “T 1/2” value was 5.70 ± 0.73^∗ h, the T max was determined as 4.23 ± 1.54 h, the half-life was 335 ± 218 min and the Tmax is 3.85 ± 1.28 h.
Consider `CC(C)=CCC[C@](C)(O[C@@H]1O[C@H](CO)[C@@H](O)[C@H](O)[C@H]1O)[C@H]1CC[C@]2(C)[C@@H]1[C@H](O)C[C@@H]1[C@@]3(C)CC[C@H](O[C@@H]4O[C@H](CO)[C@@H](O)[C@H](O)[C@H]4O)C(C)(C)[C@@H]3CC[C@]12C` [Ginsenoside F2, ginsenoside F2], for which, in data set [1] (1.5 ng/mL), the “Freeze-thaw stability” value was determined as 98.29 ± 4.06%; the “Short-term stability” value was 99.21 ± 7.70%; the “Autosampler stability” value is on record as 99.02 ± 8.01%; the “Long-term stability, concentration found” value came out at 101.83 ± 3.76%. Besides, in data set [1] (80 ng/mL), the “Freeze-thaw stability” value came to 95.95 ± 1.10%; the “Short-term stability” value is listed as 96.53 ± 4.04%; the “Autosampler stability” value came out at 96.29 ± 0.99%; the “Long-term stability, concentration found” value is 99.02 ± 2.04%. Further, in data set [2] (in vivo), the “detection in plasma at the initial time point (0 h) of the second treatment period” value was “did not detect”. Further, the AUC(0-t) in data set [2] (male, human, in vivo, po, AUC(0–t)) came out at 74.1 ± 33 ng·h/mL. Also, the total exposure AUC(0-inf) in data set [2] (male, human, in vivo, po, AUC(0–∞)) was found to be 90.7 ± 43 ng·h/mL. Further, the peak concentration (Cmax) in data set [2] (male, human, in vivo, po, C max) was 5.83 ± 2.35 ng/mL. Also, in data set [2] (male, human, in vivo, po), the half-life is 586 ± 463 min and the Tmax amounted to 6.62 ± 1.71 h.
For the molecule `CC(C)=CCC[C@](C)(O[C@@H]1O[C@H](CO)[C@@H](O)[C@H](O)[C@H]1O)[C@H]1CC[C@]2(C)[C@@H]1[C@H](O)C[C@@H]1[C@@]3(C)CC[C@H](O)C(C)(C)[C@@H]3[C@@H](O[C@@H]3O[C@H](CO)[C@@H](O)[C@H](O)[C@H]3O)C[C@]12C` [Rg1, ginsenoside Rg1], the “detection in the plasma samples” value in data set [2] (after oral RG or BRG) is recorded as “not detected”.
